# US20050171005A1, “Methods and compositions for modulating beta-catenin phosphorylation” (priority 2002, published 2005)
# Where a SMILES comes first, the peptide text is derived from it. The star is where a group is joined. Cbz = O=C(OCc1ccccc1)*
# Experiments:
# β-catenin [1] = assay: Okadaic acid treatment of HeLa, SW480 and SNU449 cells, Western blot with anti-phospho β-catenin antibodies; assay type: cell-based
# Description: FIG. 7a: HeLa cells were incubated with MG132 with or without okadaic acid (1 μM for 3 hr). Cell lysates were analyzed by Western blotting with αp45 and αp33.
# FIG. 7b: SNU449 cells [Satoh et al. (2000) id ibid.] were treated with okadaic acid (1 μM for 1 or 3 hr), and their lysates tested for S45 phosphorylation by Western blotting,
# FIG. 7c: Okadaic Acid induces β-Catenin phosphorylation and degradation in the APC mutated cell line SW480.
# Okadaic acid is a selective inhibitor of phosphatase PP2A, while it inhibits to a lower extent (10-50 fold less) phosphatase PP1. Proteasome-inhibited HeLa and SW480 cells (treated with 20 μM MG132) or Ser 37-mutated SNU 449 […] cells [Satoh et al. (2000) id ibid.] were treated with okadaic acid (1 μM) for 1 or 3 hr, harvested and their lysate analyzed by Western blot with anti-phospho β-catenin antibodies: anti-pSer45 and anti-pSer33 (for HeLa and RKO cells only). […] Yet, since S45 phosphorylation precedes the S33 phosphorylation, the okadaic effect may be reserved to S45. This is an example of a compound that can upregulate S45 phosphorylation, while Wnt3A downregulates the same phosphorylation event (FIG. 6a).
# phosphatase PP1 = details: selective inhibitor of phosphatase PP2A; cited from earlier work
# β-catenin [2] = assay: Wnt3A conditioned medium stimulation of L, SNU449, HeLa and Jurkat cells, β-catenin level and phosphorylation by Western blot; assay type: cell-based
# Description: FIG. 6a: Wnt3A inhibits S45 phosphorylation. Mouse L cells, SNU449 hepatoma cells [Satoh et al. (2000) Nat Genet 24(3):245-50], HeLa cells and β-catenin transfected Jurkat T cells were incubated (5 hr) with conditioned medium of wt or Wnt3A secreting L cells [Shibamoto et al. (1998) Genes Cells 3: 659-670]. MG-132 or okadaic acid (OKA, 1 μM) were added to the indicated cultures. Endogenous (HeLa, L cells and SNU449) and exogenous (Jurkat) β-catenin was detected with anti-β-catenin antibody, or anti-phospho-β-catenin antibodies. The numbers under the different lanes are relative densitometry figures, referring to the signal intensity of untreated cultures.
# The control of β-catenin stability is a major task of the Wnt pathway and is mediated through members of the conserved protein family dishevelled (Dvl 1,2,3) [Boutros and Mlodzik (1999) id ibid.]. […] To this end, several cell lines were first stimulated with Wnt3A [Roelink, H. and R. Nusse. (1991) Genes Dev 5: 381-388; Shibamoto, S. et al. (1998) id ibid.; Lee et al. (1999) id ibid.], and S45 phosphorylation was monitored by Western blot analysis. Wnt stimulation stabilized endogenous β-catenin in mouse L-cells (fibroblasts) (FIG. 6a, lanes 1,2) and exogenous β-catenin in Jurkat lymphocytes (lanes 5,6). […] (lanes 9-11). S45 phosphorylation of β-catenin was evident in proteasome-inhibited L cells (lane 3), Jurkat cells (lane 7) and HeLa cells (lane 14). It was also apparent in okadaic acid-treated SNU449 cells (OKA, lane 10).
# β-catenin [3] = assay type: cell-based, human; details: 293 cells; CKI-7 100 μM for 16 hr; H89 data not shown
# Description: (§1) 293T cells were transiently transfected using the calcium phosphate procedure. The following expression vectors were used: Myc- or Flag-tagged β-catenin (0.5 μg) (a human β-catenin clone obtained from R. Grosschedl), Flag- or Myc-tagged axin (2 μg) (mouse cDNA provided by F. Costantini), HA-GSK3β or Flag-GSK3β (3.5 μg) (a rabbit clone obtained from J R Woodgett) [Woodgett, J. R. (1990) EMBO J 9: 2431-2438]. β-catenin mutants include DP, (S33, S37, T40, S45, S47 substituted to alanine) single point mutants (S29F, S33Y, S37A, T41A, S45F) and 45PKA (T41S, T42R, A43R). Additional vectors: Flag-WD, a dominant negative β-TrCP fragment (ΔF-box) [Yaron, A. et al. (1998) Nature 396: 590-594]; Flag-Dvl-1 (a mouse cDNA clone obtained from S-I Yanagawa) [Lee, J. S. et al. (1999) J Biol Chem 274: 21464-21470]; WT and dominant negative Xenopus CKIε (XCKIε-D128N) (provided by T. Shcwarz-Romond) [McKay, R. M. et al. (2001) Dev Biol 235: 378-387]. 24-48 hr after transfection, cells were harvested and processed for the various experiments. MG-132 (Sigma) was used at 20 μM for 5 hr; LiCl (40 mM) was added for 6 hr, and CKI-7 (100 μM) for 16 hr prior to harvesting. β-catenin, axin or GSK-30 in cell lysates were detected using anti-Myc (Ab-1, Oncogenes Research Products, 2 μg/ml), anti-Flag (M2, Sigma, 1 μg/ml) and anti-HA (12CA5 ascites fluid; 1:5000) antibodies, respectively. GFP expression was monitored with anti-GFP antibody (JL-8, Clontech, 1 μg/ml). In some experiments (FIG. 4) GSK-3β was detected using anti-GSK-3β monoclonal antibodies (clone 7, Transduction Laboratories, 0.1 μg/ml). Endogenous and exogenous β-catenin (FIGS. 5d and 6a) were detected with anti-β-catenin antibodies (clone 14, Transduction Laboratories) (0.25 μg/ml).
# Western blot and mass spectrometry (MS). Three different commercial anti-β-catenin phospho-peptide antibodies were used: i) Anti-phospho-Thr41/Ser 45 (Cell Signaling Technology), a polyclonal antibody specific for both pT41 and pS45 (otp41,45). ii) Anti-phospho-Ser33/37/Thr41 (Cell Signaling Technology), a polyclonal antibody recognizing pS33 (αp33). These two polyclonal antibodies were used at a 1:1000 dilution, according to the manufacturer's instructions. iii) anti-phospho-Ser 33/37 (BC-22, Sigma), a monoclonal antibody specific for pS37 (used as ascites fluid at a 1:3000 dilution; αp37). Antibody specificities were determined by phosphopeptide inhibition studies. D^32S(PO4)GIHSGATTTAPS^45 abolished the αp33, but not the αp37 signal; D^32SGIHS(PO4)GATTTAPS^45 blocked the αp37 but not the αp33 signal. […] Proteins for MS analysis were immunopurified by M2 Flag-affinity beads (Sigma), separated by SDS-PAGE, Coomassie stained and the β-catenin bands were in-gel digested with endoproteinase Asp-N. The resulting peptides were desalted on small columns, eluted with 20% MeOH, 5% HCOOH, and analyzed by nanoelectrospray mass spectrometry [Yaron et al. (1998) id ibid.], using a quadrupole time-of-flight mass spectrometer (PE-Sciex, Canada).
# GSK-3β is traditionally known to target the phosphorylation of +4P-primed substrates [Frame, S. et al. (2001) Mol Cell 7: 1321-1327], a specificity supported by recent structural studies of the enzyme [Dajani, R. et al (2001) Cell 105: 721-732]. The fact that the S45 phosphorylation site is not preceded by a +4P priming site led to the proposition that the molecular complex of axin and GSK-3β is capable of bypassing the priming requirement of the uncomplexed enzyme [Cohen and Frame (2001) id ibid.]. To assess the contribution of GSK-30 in axin-mediated S45 phosphorylation, two types of experiments were carried out. In the first set, 293 cells were incubated prior to harvesting with LiCl, a GSK-3β inhibitor capable of mimicking a Wnt effect [Klein, P. S. and D. A. Melton (1996) Proc Natl Acad Sci USA 93: 8455-8459; Stambolic, V. et al. (1996) Curr Biol 6: 1664-1668].
# endogenous β-catenin = assay: Phosphorylation of endogenous β-catenin in proteasome-inhibited HeLa cells with kinase inhibitors; assay type: cell-based; details: H89 5 μM
# Description: FIG. 5d: Effects of specific kinase inhibitors on the phosphorylation of endogenous β-catenin at S41,45 and S33 in HeLa cells. CKI-7 was used at 100 μM, H89 at 5 μM and LiCl at 40 mM. β-catenin was detected with anti-β-catenin antibody, or anti-phospho-p-catenin antibodies.
# as §1
# Western blot and mass spectrometry (MS). Three different commercial anti-β-catenin phospho-peptide antibodies were used: i) Anti-phospho-Thr41/Ser 45 (Cell Signaling Technology), a polyclonal antibody specific for both pT41 and pS45 (otp41,45). ii) Anti-phospho-Ser33/37/Thr41 (Cell Signaling Technology), a polyclonal antibody recognizing pS33 (αp33). […] Antibody specificities were determined by phosphopeptide inhibition studies. […]
# In another set of experiments the in vivo role of CKI in S45 phosphorylation was analyzed, using two dominant negative CKIε constructs (dnXCKIε K85R and D128N) [McKay et al. (2001) id ibid.] and a specific CKI inhibitor (CKI-7) [Chijiwa, T. et al. (1989) J Biol Chem 264: 4924-4927]. […]
# β-catenin [4] = assay: β-catenin degradation in the 293 axin/GSK-3β expression system (Western blot); assay type: cell-based, human; details: 293 cells, axin and GSK-3β overexpression, Myc-β-catenin; MG-132 20 μM for 5 hr
# Description: as §1, with “T42R, A43R). […] MG-132 (Sigma)” for “T42R, A43R). Additional vectors: Flag-WD, a dominant negative β-TrCP fragment (ΔF-box) [Yaron, A. et al. (1998) Nature 396: 590-594]; Flag-Dvl-1 (a mouse cDNA clone obtained from S-I Yanagawa) [Lee, J. S. et al. (1999) J Biol Chem 274: 21464-21470]; WT and dominant negative Xenopus CKIε (XCKIε-D128N) (provided by T. Shcwarz-Romond) [McKay, R. M. et al. (2001) Dev Biol 235: 378-387]. 24-48 hr after transfection, cells were harvested and processed for the various experiments. MG-132 (Sigma)”, “(0.25 μg/ml). […]” for “(0.25 μg/ml).”
molecule,measurement,setting,value
C=C1[C@@H](O)[C@@H]2O[C@]3(CC[C@H](/C=C/[C@@H](C)[C@@H]4CC(C)=C[C@@]5(O[C@H](C[C@@](C)(O)C(=O)O)CC[C@H]5O)O4)O3)CC[C@H]2O[C@@H]1[C@@H](O)C[C@H](C)[C@H]1O[C@@]2(CCCCO2)CC[C@H]1C [okadaic acid],β-Catenin phosphorylation and degradation,β-catenin [1]; APC mutated cell line SW480,induces
same,phosphorylation signal with anti-pSer45,"β-catenin [1]; MG132-treated HeLa and SW480 cells or SNU 449 cells, okadaic acid 1 μM for 1 or 3 hr",induces a massive phosphorylation signal
same,S45 phosphorylation of β-catenin,"β-catenin [1]; SNU449 cells, okadaic acid 1 μM",apparent
same,phosphorylation signal with anti-pSer33,"β-catenin [1]; okadaic acid 1 μM for 1 or 3 hr, for HeLa and RKO cells only (so in the source)",induces a massive phosphorylation signal
same,inhibition of phosphatase PP1 relative to PP2A,phosphatase PP1,10-50 fold less
Wnt3A,S33/37 phosphorylation,"β-catenin [2]; Jurkat, HeLa and L cells",inhibition
same,levels of S37 mutated β-catenin,"β-catenin [2]; SNU449 hepatoma cell line, conditioned medium 5 hr",did not affect
same,S45 phosphorylation,"β-catenin [2]; all four cell lines (L, Jurkat, SNU449, HeLa), MG-132 or okadaic acid treated",inhibition
same,β-catenin level (stabilization),"β-catenin [2]; endogenous β-catenin in mouse L-cells, exogenous β-catenin in Jurkat lymphocytes, conditioned medium 5 hr",stabilized
O=S(=O)(NCCNC/C=C/c1ccc(Br)cc1)c1cccc2cnccc12 [H89],constitutive S45 phosphorylation of 45PKA β-catenin,β-catenin [3],inhibited
same,wt β-catenin phosphorylation,endogenous β-catenin,no effect
CC(C)C[C@@H](C=O)NC(=O)[C@H](CC(C)C)NC(=O)[C@H](CC(C)C)NC(=O)OCc1ccccc1 [MG-132] (Cbz-Leu-Leu-Leu-aldehyde),β-catenin degradation,β-catenin [4],blocked
